Here are results for eleven compounds from patent US6136797A, “Phospholipid derivatives of phosphono-carboxylic acids, the production of said derivatives and the use of said derivatives as antiviral medicaments” (priority 1995, dated 2000).

Converted amounts (≈) assume the structure as drawn. Counter-ions that a name gives are not always drawn. Some results are limits rather than exact numbers.

In data set [1] the test system is bone marrow stem cells of the granulocytic/monocytic series. Nature of the data set: Bone marrow toxicity in vitro (CFU-GM assay). To be noted: for toxicity on bone marrow stem cells of the granulocytic/monocytic series: in words, up to the highest tested concentration of 100 μg/ml.
For data set [2], the system named is HSV 1 and 2, influenza, HBV, VZV, EBV as well as retroviral infections. Particulars: cited from earlier work.
The conditions of data set [3]: due to similarity to pyrophosphate by accumulation in bones; cited from earlier work.
Data set [4] has as its system Murine Cytomegaly Virus (MCMV). The experiment in a line: Murine Cytomegaly Virus (MCMV) model, survival rate. It counts as in vivo, female Balb/c mice. Particulars: 8×10^5 PFU i.p.; oral bioavailability model; drug dose not given. The method, then:
Female Balb/c mice were treated i.p. with a dose of 8×10^5 PFU (plaque forming units).

In a further data set the test system is bone marrow. To be noted: AIDS patients; cited from earlier work.
Data set [5] in a line: Stability (in the investigations and during production). It counts as physicochemical. Particulars: in the investigations and during production / under the same conditions.

As to `O=C(O)CP(=O)(O)O` [phosphonoacetic acid], in data set [1] (Mus musculus, CFU-GM), the IC50 – broadly, the point on the concentration scale where inhibition reaches its midpoint – worked out at 62.9 µg/mL (≈ 449 µM). Moreover, the “toxicity on bone marrow stem cells of the granulocytic/monocytic series” value (“toxicity … of the granulocytic/monocytic series” below) in data set [1] was “more toxic than DMDOP-PFA and DMDOP-PAA”. The antiviral activity entry in data set [2] is “good antiviral activity”. Also, in data set [3], the toxicity result is recorded as “toxic”.

Compound `CCCCCCCCCCCCCCCCCCOCC(O)COP(=O)(O)C(=O)OCC` (stereo not drawn) [OOHP-PFAE, (3-octadecyloxy-2-hydroxy)-propoxy-hydroxy-phosphinylformic ethyl ester] yielded a half-inhibitory concentration (IC50) in data set [1] (Mus musculus, CFU-GM) of 59.4 µg/mL (≈ 123 µM). The “toxicity … of the granulocytic/monocytic series” value in data set [1] is “more toxic than DMDOP-PFA and DMDOP-PAA”.

In turn, `CCCCCCCCCCCCSCC(COP(=O)(O)C(=O)O)OCCCCCCCCCC` (racemic) [DMDOP-PFA, R,S-(3-Dodecylmercapto-2-decyloxy)-propoxy-hydroxy-phosphinyl-formic acid di-sodium salt] had an IC50 in data set [1] (Mus musculus, CFU-GM) greater than 100 µg/mL. Further, the “toxicity … of the granulocytic/monocytic series” value in data set [1] is on record as “no toxicity”. In addition, the “survival rate of the animals (rank order)” value (“survival rate of the animals” for short) in data set [4] is listed as “untreated<Foscarnet treated<DMDOP-PFA treated<DMDOP-PFA-OMe”.

Consider `N.N.[Cl][Pt][Cl]` [Cis-DDP (Cisplatin), Cisplatin], for which the IC50 in data set [1] (CFU-GM assay, mean value±SEM, number of experiments in parentheses, highest tested concentration 100 μg/ml) amounted to 0.45 ± 0.11 µg/mL.

On to `CCCCCCCCCCCCSCC(COP(=O)(O)C(=O)OC)OCCCCCCCCCC` (racemic) [DMDOP-PFA-OMe, R,S-(3-dodecylmercapto-2-decyloxy)propoxy-hydroxy-phosphinylformic acid methyl ester], for which, in data set [4], the “survival rate of the animals” value is recorded as “untreated<Foscarnet treated<DMDOP-PFA treated<DMDOP-PFA-OMe”.

For `CCCCCCCCCCCCSCC(COP(=O)(O)CC(=O)O)OCCCCCCCCCC` (racemic) [DMDOP-PAA, R,S-(3-dodecylmercapto-2-decyloxy)-propoxy-hydroxy-phosphinyl acetic acid di-sodium salt], in data set [1] (Mus musculus, CFU-GM), the IC50 was greater than 100 µg/mL. For the same compound, the “toxicity … of the granulocytic/monocytic series” value in data set [1] is reported as “no toxicity”.

`COc1cccc2c1C(=O)c1c(O)c3c(c(O)c1C2=O)C[C@@](O)(C(=O)CO)C[C@@H]3O[C@H]1C[C@H](N)[C@H](O)[C@H](C)O1` [Doxorubicin]: the IC50 in data set [1] (Mus musculus, CFU-GM) stood at 0.046 ± 0.007 µg/mL (≈ 0.0846 µM).

As for `CCCCCCCCCCCCCCCCCCOCC(O)COP(=O)(O)C(=O)O` (stereo not drawn) [OOHP-PFA, (3-octadecyloxy-2-hydroxy)-propoxy-hydroxy-phosphinylformic acid], 94.5 µg/mL (≈ 209 µM) corresponded to half-maximal inhibition in data set [1] (Mus musculus, CFU-GM) (IC50). The “toxicity … of the granulocytic/monocytic series” value in data set [1] was “more toxic than DMDOP-PFA and DMDOP-PAA”.

Regarding `Cc1cn([C@H]2C[C@H](N=[N+]=[N-])[C@@H](CO)O2)c(=O)[nH]c1=O` [3'-azido-3'-deoxythymidine, 3'-Azido-3'-deoxythymidine], the “treated patients needing blood transfusions due to toxic side effects on the bone marrow” value in the data set on bone marrow was “about 50%”.

In the case of `CCCCCCCCCCCCCCCCCCOC[C@@H](O)COP(=O)(O)C(=O)O` [batylphosphonoformate, 1-O-octadecyl-sn-glycero-3-phosphono-formate], the stability result in data set [5] is “unstable”.

As to `O=C(O)P(=O)(O)O` [phosphonoformic acid], in data set [1] (Mus musculus, CFU-GM), the IC50 was greater than 100 µg/mL. Also, the toxicity result in data set [3] is on record as “toxic”. For the same compound, the “survival rate of the animals” value in data set [4] is recorded as “untreated<Foscarnet treated<DMDOP-PFA treated<DMDOP-PFA-OMe”.
